In patent publication US20240300943A1, “NOVEL SALTS OF HETEROCYCLIC COMPOUND AS PROTEIN KINASE INHIBITOR AND USES THEREOF” (HK INNO.N CORPORATION, priority 2021, published 2024):
Each block holds one compound with its values, some of them ahead of it.

Legend:
[1] = tested on: DNCB-induced animal model (NC/Nga mice); assay: DNCB-induced atopic dermatitis model (topical); format: in vivo; conditions: for Reduction of scratching behavior compared to the control group (vehicle): week 4, FIG. 12
Procedure: NC/Nga mice were anesthetized with isoflurane and the dorsal hair (from the bottom of the ear to the top of the tail) was then removed. The NC/Nga mice were left for 24 hours for recovery of fine wounds on the shaved skin.
After healing, 200 μL of 1%1-chloro-2,4-dinitrobenzene (DNCB) in acetone/olive oil (3:1) was topically applied to the dorsal skin (primary skin application). Secondary skin application was performed after three days for sensitization.
Seven days after the primary skin application, 150 μL of 0.4% DNCB in acetone/olive oil (3:1) was topically applied, and applied to the dorsal skin three times a week for five weeks.
The phosphate of Compound 1 (hereinafter, referred to as a phosphate compound) obtained according to Example 3 was used as a test material, and the test material was treated before applying DNCB from two weeks after the primary skin application. The dosage of the test material was calculated based on a body weight of mice measured on the day of administration, and the test material was topically applied to atopic skin using a glass stick (a total of 56 times twice a day for 28 days, six hours at a treatment interval). 0.5% methylcellulose (0.5% MC) was administered to the control group (vehicle).
Week 6 after the primary skin application, the test animals were autopsied. Specifically, the test animals were anesthetized using isoflurane, and as much blood as possible was drawn from the caudal vena cava with a syringe and stored in a 5 mL vacuum tube containing a blood clot activator. The blood was allowed to stand at room temperature for 15-20 minutes for coagulation and then centrifuged at 3000 rpm for 10 minutes.
Atopic dermatitis scores were rated as none (0), mild (1), moderate (2), and severe (3) for each of the five symptoms (erythema, dryness, skin edema and hematoma, erosion, and keratinization). The total dermatitis score representing clinical severity was defined as the sum of all scores (maximum score: 15). The evaluation was conducted twice a week by the same researcher at the same time.
To evaluate a scratching behavior at week 4, mice were placed in cages and the frequency of scratching was evaluated for 30 minutes.
Quantitative analysis was performed using a serum IgE and histamine with ELISA kit.
After measuring a weight of the spleen and mouse, a spleen-to-body weight ratio (relative organ weight) was calculated.
TARC, TSLP, IL-4, IL-1B and TNF-α were quantified using skin tissue through qRT-PCR.
On the day of autopsy, the skin in 10% neutral buffered formalin solution was analyzed by staining with H & E and toluidine blue.

[2] = Photostability evaluation; format: physicochemical
From the text: Samples were packaged in LPDE bag, and stored under visible (1.2M Lux-h), UV (200 W-h/m2) and UV+visible conditions, respectively, and then evaluated.

[3] = tested on: DSS-induced animal model (C57BL/6J mice); assay: DSS-induced colitis model; format: in vivo; conditions: oral
Procedure: To induce colitis in C57BL/6J mice, drinking water was treated with 3% dextran sodium sulphate (DSS) and provided each morning for eight days, and a negative control group was provided with 0% DSS.
After mice were grouped into several groups (day O), the mice were orally dosed with 0.5% methylcellulose and Compound 1 obtained according to Preparation Example 1 as a test material at 9 a.m. and 5 p.m. every day from day 1 to day 7. Test animals were autopsied on day 8.
Disease activity index (DAI) was calculated as body weight, fecal […], and fecal blood score to represent the severity of the disease. Body weight and food intake were monitored and evaluated at the start of the study and every 24 hours, and fecal samples were collected on days 0, 3, 5, and 7 and analyzed according to Table 6 below.
After measuring the weight and length of the colon obtained by autopsy, the weight-to-length ratio was calculated.
On day 8, blood was drawn from the heart into a centrifuge tube containing EDTA-K2 anticoagulant. After centrifugation (7000 rpm, 10 minutes, 4° C.), plasma was separated, and KC and MIP-2 were measured by Meso Scale Discovery Kit.
The mRNA was extracted from a portion of large intestine tissues (same location for each animal) to analyze an expression level of MX2 and TNF-alpha in the tissues through qPCR.
The large intestine part fixed with 10% formalin was cut with paraffin and stained with hematoxylin-eosin. The criteria for histological changes in the colon followed Table 7 below.

[4] = tested on: JAK1, Tyk2; assay: Human whole blood assay, JAK1, Tyk2; format: cell-based; conditions: cytokine-induced STAT phosphorylation
Procedure: A stock solution of Compound 1 obtained according to Preparation Example 1 was diluted with distilled water and then serially diluted at ⅕ with 4% DMSO. 5 μL of test material was added to 100 μL of whole blood collected using a 1.7 mL eppendorf tube, mixed, and incubated at 37° C. for 45 minutes.
IL-6 (10 μg/ml) was diluted with 0.1% BSA/DW to reach 1 μg/mL each. 5 μL of IL-6 was added (at a final concentration of 50 ng/mL) and incubated at 37° C. for 15 minutes. At this time, 5 μL of DPBS was added as a non-stimulated control group. Lyse/fix buffer 5× was diluted 1× in distilled water and used. […]
For double staining of CD4 and pSTATI, anti-[…] and anti-pSTATI were mixed in a staining buffer and added to each of the samples. […] On the next day, the results were analyzed using FACSCanto II. […]
The numerical values analyzed by FlowJo were calculated to obtain IC50 values using GraphPad Prism 5 software (product name).
No treatment response (NTR) was set as a reference, and the degree of the phosphorylation of STAT induced by cytokines was converted into a relative ratio (% control group). A dose-response plot was obtained for each concentration-dependent activity of each test material using GraphPad Prism (version 5.0) and ICso values were calculated.

Individual related material ([2]; Initial): 0.08%
Total related material ([2]; Initial): 0.45%
Individual related material ([2]; Solid, Control): 0.07%
Total related material ([2]; Solid, Control): 0.37%
Individual related material ([2]; Solid, UV (200 W-h/m2)): 0.1%
Total related material ([2]; Solid, UV (200 W-h/m2)): 0.42%
Individual related material ([2]; Solid, UV + Vis): 0.08%
Total related material ([2]; Solid, UV + Vis): 0.5%
Individual related material ([2]; Solid, UV + Vis Control): 0.08%
Total related material ([2]; Solid, UV + Vis Control): 0.48%
Individual related material ([2]; Solid, Vis (1.2M Lux-h)): 0.07%
Total related material ([2]; Solid, Vis (1.2M Lux-h)): 0.41%
SMILES: C[C@@H]1CN(C(=O)CC#N)CC=C1c1cc(NC(=O)C2CC2)nc2[nH]ccc12 [Example 3, (S)—N-(4-(1-(2-cyanoacetyl)-3-methyl-1,2,3,6-tetrahydropyridin-4-yl)-1H-pyrrolo[2,3-b]pyridin-6-yl)cyclopropanecarboxamide]
Reduction of scratching behavior compared to the control group (vehicle) ([1]; 3% phosphate compound): at least 50%
Skin severity score (clinical atopic dermatitis score) ([1]; FIG. 11): significantly reduced
Spleen-to-body weight ratio ([1]; FIG. 15): decreased
Histological properties of atopic dermatitis (skin staining) ([1]; FIG. 16): changes the histological properties of atopic dermatitis
Atopic dermatitis-related cytokines of plasma and skin ([1]; FIGS. 13 and 14): reduced
Reduction of scratching behavior compared to the control group (vehicle) ([1]; dosed groups): at least 30%
Symptoms of atopic dermatitis ([1]; twice a day for 28 days, FIGS. 11 to 16): ameliorates symptoms of atopic dermatitis

IC50 [4]: 168 nM
SMILES: C[C@@H]1CN(C(=O)CC#N)CC=C1c1cc(NC(=O)C2CC2)nc2[nH]ccc12 [Compound 1, (S)—N-(4-(1-(2-cyanoacetyl)-3-methyl-1,2,3,6-tetrahydropyridin-4-yl)-1H-pyrrolo[2,3-b]pyridin-6-yl)cyclopropanecarboxamide]
Disease activity index (DAI) ([3]; 90 mg/kg, FIG. 21): reduced to half that of the control group (vehicle)
Weight-to-length ratio of colon ([3]; FIG. 22): lower value compared to the control group (vehicle)
Histopathological score ([3]; FIG. 24): lowered
KC concentration in plasma ([3]; day 8, FIG. 23): decreased
MIP-2 concentration in plasma ([3]; day 8, FIG. 23): decreased
Expression level of MX2 in the colon ([3]; qPCR, FIG. 23): decreased
Expression level of TNF-alpha in the colon ([3]; qPCR, FIG. 23): decreased
Degree of increase in disease activity index (DAI) ([3]; twice daily day 1 to day 7, FIG. 21): lower than that of the control group (vehicle)
